Assay results: patent US11319296B2, “DP antagonist” (ONO PHARMACEUTICAL CO., LTD., priority 2018, dated 2022)

Tests used:
Human DP receptor = biological target: T1, Human DP receptor (Homo sapiens, UniProt Q13258); experiment: Measurement of DP receptor antagonistic activity using human DP receptor expressing cells (cAMP-HTRF); format: cell-based; conditions: inhibition of cAMP production increased by 10 nmol/L prostaglandin D2
T1 construct: expressed in transfected cells
T1 sequence (Q13258 1-359): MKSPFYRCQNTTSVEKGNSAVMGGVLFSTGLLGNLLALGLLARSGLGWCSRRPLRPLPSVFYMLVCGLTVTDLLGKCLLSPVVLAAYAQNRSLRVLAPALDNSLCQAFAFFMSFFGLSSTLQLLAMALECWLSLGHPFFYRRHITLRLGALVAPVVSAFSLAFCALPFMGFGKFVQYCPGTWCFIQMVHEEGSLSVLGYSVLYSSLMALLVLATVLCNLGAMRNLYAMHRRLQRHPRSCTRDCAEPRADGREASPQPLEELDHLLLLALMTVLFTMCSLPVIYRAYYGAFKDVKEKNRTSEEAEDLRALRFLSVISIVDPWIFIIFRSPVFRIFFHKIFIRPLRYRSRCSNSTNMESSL
Protocol: Biological Example 1: Measurement of DP Receptor Antagonistic Activity Using Human DP Receptor Expressing Cells
cAMP-HTRF kit (SCETI MEDICAL LABO K.K., 62AM6PEJ) was used to measure DP receptor antagonistic activity. To a 384 well plate was added 10 μL/well of the compound of the present invention prepared at various concentrations and prostaglandin D2 (final concentration 10 nmol/L). Human DP receptor-expressing cells were suspended in phosphate buffer containing 2 μmoL/L diclofenac and 1 mmol/L IBMX (3-isobutyl-1-methylxantine) and seeded to 5000 cells/10 μL/well. After cell seeding, the cells were incubated at room temperature for 1 hour. Thereafter, anti-cAMP Cryptate conjugate and a cAMP-d2 solution were added according to a method of the measurement kit, and the mixture was incubated at room temperature for 1 hour, then the cAMP concentration in the sample was quantified.
Intensity of DP receptor antagonistic action by the compound of the present invention was represented by IC50 value (concentration of the compound of the present invention required to inhibit 50% of cAMP production in the absence of the compound of the present invention) calculated from an inhibition ratio to the cAMP production increased by 10 nmol/L prostaglandin D2 stimulation.

[1] = Measurement of concentration of compound in cerebrospinal fluid (CSF) after oral administration; format: in vivo; conditions: rat, 3 mg/kg, male Wistar rats, oral 3 mg/5 mL/kg, five test substances mixed, CSF collected 3 hours after administration
Protocol: Pharmacokinetic Test 1: Measurement of Concentration of Compound of Present Invention in Cerebrospinal Fluid (Hereinbelow, CSF)
Five test substances were mixed, and a test substance solution was prepared so that the dose of each test substance was 3 mg/5 mL/kg. The medium used was 5% DMSO 20% kolliphor HS15/propylene glycol (7:3). The test substance solution was orally administered to male 8- to 10-week-old Wistar rats purchased from Charles River Japan. Three hours after administration, the rats were anesthetized and CSF was collected by cisternal puncture. The same amount of ethanol (wako) as CSF was taken with a syringe used for collection, and the compound adsorbed on the syringe was recovered by washing.
Candesartan (TRC) was used as an internal standard substance, 40 μL of acetonitrile and 160 μL of Candesartan-containing acetonitrile/ethanol (7:3) were added to 10 μL of the obtained CSF sample, and the mixture was stirred. To prepare a calibration curve, 40 μL of the compound solution and 160 μL of Candesartan-containing acetonitrile/ethanol (7:3) were added to 10 μL of plasma, and the mixture was stirred. The entire amount of each solution was transferred to a deproteinization filter plate and suction filtered. The obtained filtrate was appropriately diluted with acetonitrile/water (1:1) and used for measurement. In the measurement, standard samples for calibration curve were prepared in the same matrix and analyzed in the same manner. The measurement was performed under the following conditions.
Liquid Chromatography System: Prominence UFLCXR (Shimadzu Corporation),
Column: Shim-pack XR-ODSII 2.0 mm ID×75 mm (Shimadzu Corporation),
Column temperature: 40° C.,
Mobile phase: A: 0.2% formic acid 5 mmol/L ammonium acetate aqueous solution, B: acetonitrile,
Mass spectrometry system: API4000, API5000 (AB SCIEX)
A regression equation was calculated from the peak area ratio (peak area of the test substance/peak area of the internal standard substance) obtained by measuring the standard samples for calibration curve using analysis software Analyst ver. 1.5.2 (AB SCIEX). The peak area ratio was also obtained for a measurement sample and substituted into the regression equation to calculate a quantitative value. In calculation of mean value and standard deviation, points below the lower limit of quantification were calculated as 0.

normal rat = experiment: Effect of prolonging normal rat awakening time (electroencephalogram/electromyogram); format: in vivo; conditions: rats, single oral dose of 3 mg/kg
Protocol: Biological Example 2: Effect of Prolonging Normal Rat Awakening Time
Chronic electrodes were placed in the brain and cervical muscles of rats to prepare rats in which electroencephalogram and electromyogram can be measured. After a recovery period of one week or more, the rat and a biological signal amplifier were connected in a shield box that blocked sound and electrical noise. After acclimatization in a measurement cage for 1 hour or more, various doses of the compound of the present invention were orally administered to rats in a single dose, and electroencephalogram and electromyogram were recorded 6 hours after the oral administration. After the measurement was completed, the rats were returned to a breeding cage each time, and a vehicle and each compound were evaluated with a washout period of one week or more.
The recorded electroencephalogram and electromyogram were analyzed using SleepSign Ver. 3 and divided into epochs every 10 seconds, and the stage was determined for any of awakening, non-REM sleep or REM sleep, with reference to characteristics of the electroencephalogram and electromyogram and spectral analysis results of each frequency component of the brain wave. […]

| IC50 (Human DP receptor) | concentration at 3 h [1] | SMILES | awakening time-prolonging effect (difference in total awakening time of 6 hours after administration vs vehicle-administered group) (normal rat) |
| --- | --- | --- | --- |
| 11 nM | 29 ng/mL | Cc1cc(OCCC2CCCCC2)cc(C)c1C(=O)Nc1cc(CC(=O)O)ccc1Cl [Example 4-1, {4-Chloro-3-[4-(2-cyclohexylethoxy)-2,6-dimethylbenzamide]phenyl}acetic Acid] |  |
| 1.7 nM | 36 ng/mL | Cc1cc(OCCC2CCCCC2)cc(C)c1C(=S)Nc1cc(CC(=O)O)ccc1Cl [Example 10-1, (4-Chloro-3-{[4-(2-cyclohexylethoxy)-2,6-dimethylbenzene-1-carbothioyl]amino}phenyl)acetic Acid] |  |
|  | 55 ng/mL | O=C(O)Cc1ccc(Cl)c(NC(=S)c2ccc(OCCC3CCCCO3)cc2C(F)(F)F)c1 (stereo not drawn) [Example 10-2, [4-Chloro-3-({4-[2-(oxan-2-yl)ethoxy]-2-(trifluoromethyl)benzene-1-carbothioyl}amino)phenyl]acetic Acid] |  |
| 5.1 nM | 34 ng/mL | O=C(O)Cc1ccc(Cl)c(NC(=S)c2ccc(OCCc3ccccc3)cc2C(F)(F)F)c1 [Example 10-4, (4-Chloro-3-{[4-(2-phenylethoxy)-2-(trifluoromethyl)benzene-1-carbothioyl]amino}phenyl)acetic Acid] |  |

Further lines, the molecule ahead of its results:

| SMILES | IC50 (Human DP receptor) | concentration at 3 h [1] | awakening time-prolonging effect (difference in total awakening time of 6 hours after administration vs vehicle-administered group) (normal rat) |
| --- | --- | --- | --- |
| Cc1cc(OCCC2CCCCO2)cc(C)c1C(=S)Nc1cc(C(C)C(=O)O)ccc1Cl (stereo in doubt) [Example 21, 2-(4-Chloro-3-{[(2,6-dimethyl-4-{2-[(2R)-tetrahydro-2H-pyran-2-yl]ethoxy}phenyl)carbothioyl]amino}phenyl)propanoic Acid] | 7.8 nM | 66 ng/mL |  |
| O=C(O)Cc1ccc(Cl)c(NC(=O)c2ccc(OCCC3CCCCC3)cc2C(F)(F)F)c1 [Example 2-1, {4-Chloro-3-[4-(2-cyclohexylethoxy)-2-(trifluoromethyl)benzamide]phenyl}acetic Acid] | 34 nM |  |  |
| Cc1cc(OCCC2CCCCO2)cc(C)c1C(=O)Nc1cc(CC(=O)O)ccc1Cl (stereo not drawn) [Example 4, (4-Chloro-3-{2,6-dimethyl-4-[2-(oxan-2-yl)ethoxy]benzamide}phenyl)acetic Acid] | 58 nM |  |  |
| Cc1cc(OC2Cc3ccccc3C2)cc(C)c1C(=O)Nc1cc(CC(=O)O)ccc1F [Example 5, (3-{4-[(2,3-Dihydro-1H-inden-2-yl)oxy]-2,6-dimethylbenzamide}-4-fluorophenyl)acetic Acid] | 10 nM |  |  |
| Cc1cc(C#CCC2CCCCC2)cc(C)c1C(=O)Nc1cc(CC(=O)O)ccc1Cl [Example 7, {4-Chloro-3-[4-(3-cyclohexylprop-1-yn-1-yl)-2,6-dimethylbenzamide]phenyl}acetic Acid] | 16 nM | 45 ng/mL |  |
| Cc1cc(/C=C/CC2CCCCC2)cc(C)c1C(=O)Nc1cc(CC(=O)O)ccc1Cl [Example 8, (4-Chloro-3-{4-[(1E)-3-cyclohexylprop-1-en-1-yl]-2,6-dimethylbenzamide}phenyl)acetic Acid] | 3.7 nM | 28 ng/mL | 48 min |
| Cc1cc(OCCC2CCCCO2)cc(C)c1C(=S)Nc1cc(CC(=O)O)ccc1Cl (stereo not drawn) [Example 10, [4-Chloro-3-({2,6-dimethyl-4-[2-(oxan-2-yl)ethoxy]benzene-1-carbothioyl}amino)phenyl]acetic Acid] | 9.6 nM | 43 ng/mL |  |
| Cc1cc(OCC[C@H]2CCCCO2)cc(C)c1C(=S)Nc1cc(CC(=O)O)ccc1Cl [Example 12, {4-Chloro-3-[(2,6-dimethyl-4-{2-[(2R)-oxan-2-yl]ethoxy}benzene-1-carbothioyl]amino}phenyl}acetic Acid] | 4.8 nM | 48 ng/mL | 60 min |
| Cc1cc(OCCC2CCCCO2)cc(C)c1C(=S)Nc1cc(C(C)(C)C(=O)O)ccc1F (stereo not drawn) [Example 20, 2-{3-[({2,6-Dimethyl-4-[2-(tetrahydro-2H-pyran-2-yl)ethoxy]phenyl}carbothioyl)amino]-4-fluorophenyl}-2-methylpropanoic Acid] | 35 nM | 52 ng/mL |  |
